Measurements published in ChEMBL document CHEMBL1137794, “Didemnins and tunichlorin: novel natural products from the marine tunicate Trididemnum solidum” (J Nat Prod, 1988).
≈ marks a conversion by molar mass, not a printed value. Calls of active or inactive are those of the source. The calls are words filed in the database; no cut-off is given here. *1 amine or outer side, *2 acyl side, *3 side chain or, on linkers, in order; H or OH if unused. Where a SMILES comes first, the peptide text is derived from it. Bridges are numbered along the chain shown (N, C = ends). [ ]: non-standard residue; d: D form. X1 = CC[C@H](C)[C@@H](N[*:1])[C@@H](O)CC(=O)O[C@H](C(=O)[C@H](C)C(=O)[*:2])C(C)C; NMeY = CN[C@@H](Cc1ccc(O)cc1)C(=O)O; dNMeL = CN[C@H](CC(C)C)C(=O)O; Lac = C[C@H](O)C(=O)O

Tests used:
[1] = system: Sandfly fever Sicilian virus; experiment: Antiviral activity against Sandfly fever virus assessed as plaque reduction at 250 ug/mL; assay type: functional, organism-based
[2] = system: Venezuelan equine encephalitis virus; experiment: Antiviral activity against Venezuelan equine encephalomyelitis virus infected in african green monkey Vero cells assessed as plaque reduction at 250 ug/mL; assay type: functional, organism-based
Rift Valley fever virus [3] = experiment: Antiviral activity against Rift Valley fever virus infected in african green monkey Vero cells assessed as plaque reduction at 250 ug/mL; assay type: functional, organism-based
Yellow fever virus [4] = experiment: Antiviral activity against Yellow fever virus infected in rhesus monkey MK2 cells assessed as plaque reduction at 250 ug/mL; assay type: functional, organism-based
Mus musculus [5] = experiment: Toxicity in mouse B16 cells xenografted mouse at 0.5 mg/kg, ip administered on day 1 to day 9; assay type: organism-based; parameters: dose 0.5 mg/kg, route intraperitoneal; details: in vivo
Mus musculus [6] = experiment: Toxicity in mouse P388 cells xenografted mouse at 0.06 mg/kg, ip administered on day 1 to day 9; assay type: organism-based; parameters: dose 0.06 mg/kg, route intraperitoneal; details: in vivo
Rattus norvegicus = species on record: Rattus norvegicus; experiment: Toxicity in rat; assay type: organism-based; details: in vivo
Mus musculus [7] = experiment: Toxicity in mouse P388 cells xenografted mouse at 0.5 mg/kg, ip administered on day 1 to day 9; assay type: organism-based; parameters: dose 0.5 mg/kg, route intraperitoneal; details: in vivo
Mus musculus [8] = experiment: Toxicity in mouse P388 cells xenografted mouse assessed as change in body weight at 1 mg/kg, ip administered on day 1 to day 9; assay type: organism-based; parameters: dose 1 mg/kg, route intraperitoneal; details: in vivo
Mus musculus [9] = species on record: Mus musculus; experiment: Immunosuppressive activity in spleen cells transformed mouse assessed as inhibition of splenomegaly by graft-versus-host reaction assay; assay type: functional, organism-based
Mus musculus [10] = experiment: Toxicity in mouse P388 cells xenografted mouse assessed as change in body weight at 0.25 mg/kg, ip administered on day 1 to day 9; assay type: organism-based; parameters: dose 0.25 mg/kg, route intraperitoneal; details: in vivo
Mus musculus [11] = experiment: Toxicity in mouse B16 cells xenografted mouse assessed as change in body weight at 0.06 mg/kg, ip administered on day 1 to day 9; assay type: organism-based; parameters: dose 0.06 mg/kg, route intraperitoneal; details: in vivo
[12] = system: Venezuelan equine encephalitis virus; experiment: Antiviral activity against Venezuelan equine encephalomyelitis virus infected in african green monkey Vero cells assessed as plaque reduction at 0.05 ug/mL; assay type: functional, organism-based
Mus musculus [13] = experiment: Toxicity in mouse B16 cells xenografted mouse assessed as change in body weight at 1 mg/kg, ip administered on day 1, 5 and day 9; assay type: organism-based; parameters: dose 1 mg/kg, route intraperitoneal; details: in vivo
Mus musculus [14] = species on record: Mus musculus; experiment: Toxicity in mouse; assay type: organism-based; details: in vivo
Mus musculus [15] = experiment: Toxicity in mouse P388 cells xenografted mouse assessed as change in body weight at 0.03 mg/kg, ip administered on day 1, 5 and day 9; assay type: organism-based; parameters: dose 0.03 mg/kg, route intraperitoneal
Mus musculus [16] = experiment: Toxicity in mouse P388 cells xenografted mouse assessed as change in body weight at 0.06 mg/kg, ip administered on day 1 to day 9; assay type: organism-based; parameters: dose 0.06 mg/kg, route intraperitoneal; details: in vivo
Mus musculus [17] = experiment: Toxicity in mouse B16 cells xenografted mouse assessed as change in body weight at 0.5 mg/kg, ip administered on day 1, 5 and day 9; assay type: organism-based; parameters: dose 0.5 mg/kg, route intraperitoneal; details: in vivo
Mus musculus [18] = experiment: Toxicity in mouse P388 cells xenografted mouse assessed as change in body weight at 0.25 mg/kg, ip administered on day 1, 5 and day 9; assay type: organism-based; parameters: dose 0.25 mg/kg, route intraperitoneal; details: in vivo
Mus musculus [19] = experiment: Toxicity in mouse P388 cells xenografted mouse assessed as change in body weight at 0.5 mg/kg, ip administered on day 1, 5 and day 9; assay type: organism-based; parameters: dose 0.5 mg/kg, route intraperitoneal; details: in vivo
Mus musculus [20] = experiment: Toxicity in mouse B16 cells xenografted mouse assessed as change in body weight at 0.25 mg/kg, ip administered on day 1, 5 and day 9; assay type: organism-based; parameters: dose 0.25 mg/kg, route intraperitoneal; details: in vivo
[21] = system: Sandfly fever Sicilian virus; experiment: Antiviral activity against Sandfly fever virus assessed as plaque reduction at 0.05 ug/mL; assay type: functional, organism-based
Canis familiaris = species on record: Canis familiaris; experiment: Toxicity in dog; assay type: organism-based, Canis lupus familiaris; details: in vivo
Mus musculus [22] = experiment: Toxicity in mouse P388 cells xenografted mouse assessed as change in body weight at 0.06 mg/kg, ip administered on day 1, 5 and day 9; assay type: organism-based; parameters: dose 0.06 mg/kg, route intraperitoneal; details: in vivo
Mus musculus [23] = experiment: Toxicity in mouse B16 cells xenografted mouse assessed as change in body weight at 0.5 mg/kg, ip administered on day 1 to day 9; assay type: organism-based; parameters: dose 0.5 mg/kg, route intraperitoneal; details: in vivo
Yellow fever virus [24] = experiment: Antiviral activity against Yellow fever virus infected in rhesus monkey MK2 cells assessed as plaque reduction at 0.05 ug/mL; assay type: functional, organism-based
Mus musculus [25] = experiment: Toxicity in mouse P388 cells xenografted mouse assessed as change in body weight at 1 mg/kg, ip administered on day 1, 5 and day 9; assay type: organism-based; parameters: dose 1 mg/kg, route intraperitoneal; details: in vivo
Mus musculus [26] = experiment: Toxicity in mouse P388 cells xenografted mouse assessed as change in body weight at 0.5 mg/kg, ip administered on day 1 to day 9; assay type: organism-based; parameters: dose 0.5 mg/kg, route intraperitoneal; details: in vivo
Mus musculus [27] = experiment: Toxicity in mouse B16 cells xenografted mouse assessed as change in body weight at 0.06 mg/kg, ip administered on day 1, 5 and day 9; assay type: organism-based; parameters: dose 0.06 mg/kg, route intraperitoneal; details: in vivo
Rift Valley fever virus [28] = experiment: Antiviral activity against Rift Valley fever virus infected in african green monkey Vero cells assessed as plaque reduction at 0.05 ug/mL; assay type: functional, organism-based
Mus musculus [29] = experiment: Toxicity in mouse B16 cells xenografted mouse assessed as change in body weight at 0.03 mg/kg, ip administered on day 1 to day 9; assay type: organism-based; parameters: dose 0.03 mg/kg, route intraperitoneal; details: in vivo
Mus musculus [30] = experiment: Toxicity in mouse B16 cells xenografted mouse assessed as change in body weight at 0.25 mg/kg, ip administered on day 1 to day 9; assay type: organism-based; parameters: dose 0.25 mg/kg, route intraperitoneal; details: in vivo
T-cell [31] = experiment: Immunosuppressive activity in human T cell assessed as inhibition of mitogenesis; assay type: functional, cell-based
Lymphocyte [32] = experiment: Immunosuppressive activity in human lymphocytes by mixed lymphocyte reaction assay; assay type: functional, cell-based
B cell = experiment: Immunosuppressive activity in human B cell assessed as inhibition of mitogenesis
T-cell [33] = experiment: Immunosuppressive activity in rat T cell assessed as inhibition of mitogenesis
Lymphocyte [34] = experiment: Immunosuppressive activity in human lymphocytes assessed as inhibition of protein synthesis
Lymphocyte [35] = experiment: Immunosuppressive activity in baboon lymphocytes by mixed lymphocyte reaction assay; details: Papio hamadryas
T-cell [36] = experiment: Immunosuppressive activity in baboon T cell assessed as inhibition of mitogenesis; details: Papio hamadryas
L1210 = experiment: Cytotoxicity against mouse L1210 cells; assay type: functional; details: read-out: ID50 (the source's name)
P388 = experiment: Antitumor activity against mouse P388 cells xenografted mouse assessed as extend the life time at 0.03 to 1 mg/kg, ip; assay type: functional; details: dose mg/kg 0.03-1; route intraperitoneal

In the case of `NC(=O)c1ncn([C@@H]2O[C@H](CO)[C@@H](O)[C@H]2O)n1`, the Activity [1] is reported as “Active”, the Activity [2] is reported as “Active” and the Activity (Rift Valley fever virus [3]) is reported as “Active”. The Activity (Yellow fever virus [4]) was “Active”.

For `CC[C@H](C)[C@H]1NC(=O)[C@@H](NC(=O)[C@@H](CC(C)C)N(C)C(=O)[C@@H]2CCCN2C(=O)C(C)O)[C@@H](C)OC(=O)[C@H](Cc2ccc(OC)cc2)N(C)C(=O)[C@@H]2CCCN2C(=O)[C@H](CC(C)C)NC(=O)[C@@H](C)C(=O)[C@H](C(C)C)OC(=O)C[C@@H]1O` (some centres not stated) [DIDEMNIN B], the Activity (Mus musculus [5]) was “Toxic”, the Activity (Mus musculus [6]) was “Toxic” and the Activity (Rattus norvegicus) was “Toxic”. The Activity (Mus musculus [7]) was “Toxic”, the Activity (Mus musculus [8]) was “Toxic” and the inhibition (Mus musculus [9]) was “Dose-dependent effect”. The Activity (Mus musculus [10]) was -2.2 g, the Activity (Mus musculus [11]) was -0.4 g and the Activity [12] was “Active”. For the same compound, the Activity (Mus musculus [13]) was -3.2 g, the Activity (Mus musculus [14]) was “Toxic” and the body weight change (Mus musculus [15]) was 1600 mg. It also gave an Activity (Mus musculus [16]) of 0.1 g, an Activity (Mus musculus [17]) of -1.3 g and an Activity (Mus musculus [18]) of -0.5 g. For the same compound, the Activity (Mus musculus [19]) was -1.7 g, the Activity (Mus musculus [20]) was 0.3 g and the Activity [21] was “Active”. For the same compound, the Activity (Canis familiaris) was “Toxic”, the Activity (Mus musculus [22]) was 1.2 g and the Activity (Mus musculus [23]) was -4.5 g. For the same compound, the Activity (Yellow fever virus [24]) was “Active”, the Activity (Mus musculus [25]) was -3.8 g and the Activity (Mus musculus [26]) was -3.4 g. For the same compound, the Activity (Mus musculus [27]) was 1.2 g, the Activity (Rift Valley fever virus [28]) was “Active” and the Activity (Mus musculus [29]) was 0.8 g. The Activity (Mus musculus [30]) was -3.3 g.

`Cn1cnc([N+](=O)[O-])c1Sc1ncnc2[nH]cnc12` [AZATHIOPRINE] showed an IC50 (T-cell [31]) of 9 µg/mL (≈ 32.5 µM), an IC50 (Lymphocyte [32]) of 3 µg/mL (≈ 10.8 µM) and an IC50 (B cell) of 1 µg/mL (≈ 3.61 µM). For the same compound, the IC50 (T-cell [33]) was 2 µg/mL (≈ 7.21 µM), the IC50 (Lymphocyte [34]) was 85 µg/mL (≈ 307 µM) and the IC50 (Lymphocyte [35]) was 2.9 µg/mL (≈ 10.5 µM). The IC50 (T-cell [36]) was 0.4 µg/mL (≈ 1.44 µM).

`CC[C@H](C)[C@H]1NC(=O)[C@@H](NC(=O)[C@@H](CC(C)C)N(C)C(=O)[C@H](C)O)[C@@H](C)OC(=O)[C@H](Cc2ccc(OC)cc2)N(C)C(=O)[C@@H]2CCCN2C(=O)[C@H](CC(C)C)NC(=O)[C@@H](C)C(=O)[C@H](C(C)C)OC(=O)C[C@@H]1O` [DIDEMNIN C] (H-[Lac][dNMeL]T[X1]LP[NMeY](Me); ester 3-C) was tested, and the IC50 (L1210) was 0.002 µg/mL (≈ 0.00197 µM).

`CC[C@H](C)[C@H]1NC(=O)[C@@H](NC(=O)[C@@H](CC(C)C)NC)[C@@H](C)OC(=O)[C@H](Cc2ccc(OC)cc2)N(C)C(=O)[C@@H]2CCCN2C(=O)[C@H](CC(C)C)NC(=O)[C@@H](C)C(=O)[C@H](C(C)C)OC(=O)C[C@@H]1O` [DIDEMNIN A] (H-[dNMeL]T[X1]LP[NMeY](Me); ester 2-C) gave an IC50 (L1210) of 0.002 µg/mL (≈ 0.00212 µM) and an Activity (P388) of 100%.
